One test has as its target T1, LAR (Homo sapiens, UniProt P10586).
T1 construct: purchased BIOMOL Research Laboratories, Inc
Nature of the test: LAR Assay. The format is biochemical. The following applies: Table 6. On the procedure: C) LAR Assay: Inhibition of the phosphatase LAR was performed according to reported procedures (Cho, H. Biochemistry 1991, 30, 6210; 1992, 31, 133; Cho, H. Prot. Sci., 1993, 2, 977). LAR was purchased from BIOMOL Research Laboratories, Inc.

In test [1] the test system is SCG neurons. Kind of test: Protection of SCG neurons from anti-NGF killing. The format is cell-based, Sprague Dawley rats. The following applies: Rattus norvegicus, Neuron; anti-NGF antibody, 48 hours, Alamar Blue viability; read-out: IC50, rescue from anti-NGF killing of cultured SCG neurons. On the procedure: Neurotrophins are critical to the growth, development, and survival of small fiber neurons of the PNS. SCG neurons are neurons of the PNS that undergo apoptosis upon NGF withdrawal. In a typical experiment SCG neurons are cultured in the presence of NGF, which induces survival and neurite out-growth. After 5 days the NGF is removed by either the addition of anti-NGF polyclonal antibody (Sigma) or by repeated washings (4 times) with NGF free media, resulting in the apoptosis of up to 90% of the neurons after 48 hours, as measured by MTS staining. The addition of selected compounds of Formula I to the final cellular media provides upwards of 100% protection, at drug concentrations ranging from 10 to 50 μM (see Example 62).
Protection of SCG neurons from anti-NGF killing. SCG neurons were isolated from day 1 neonatal Sprague Dawley rats, plated at a cell density of 5,000 cells/well, and incubated in Biowhittaker Ultraculture containing 1% Penstrep, 1% L-glutamine, 0.7% ARAC, 3% rat serum, and NGF (50 ng/mL, Calomone Labs), at 37° C., under a 5% CO2 atmosphere. After 4 days the cells were treated with anti-NGF antibody (Sigma). At this time compound was added and the cells were maintained serum and NGF free for 48 hours, at which time viability of the neurons was assessed using Alamar Blue (Medicorp) staining. Table 3 summarizes selected IC50 values from compounds tested using this protocol.

The next test deals with PP1. Nature of the test: PP1 Assay. The following applies: Table 6. The class given is biochemical. On the procedure:
E) PP1 Assay: Inhibition of the phosphatase PP1 was performed according to reported procedures (Nat. Biotechnol., 2000, 18, 847).

Another test relates to SCG ex-plant. Kind of test: Neurite out-growth in SCG ex-plants with minimal NGF. The following applies: 30 μM compound, 1 ng/mL NGF, after 2 days. The format is cell-based. On the procedure: FIG. 3A is an SCG ex-plant cultured in the absence of NGF. No neurite extensions are visible. FIG. 3B. is an SCG ex-plant cultured in the presence of compound 23 (30 μM).
In order to determine if these compounds were capable of augmenting NGF signaling in vitro, compound was added to cultured SCG neurons in the presence of ‘minimal’ quantities of NGF. […] Similar results were obtained using NGF differentiated PC12 cells (not shown).

Test [2] concerns SCG neurons. Nature of the test: In vitro protection of SCG neurons from cisplatin killing. The format is cell-based, Sprague Dawley rats. The following applies: Rattus norvegicus, Neuron; cisplatin 3 μg/mL, 48 hours, MTS viability; read-out: IC50 (±1 μM), protection of SCG neurons against cisplatin killing. The procedure:
The mechanism of cisplatin's anti-cancer action is not fully understood, but is believed to involve DNA binding and […]. Cisplatin is toxic to neurons. The addition of cisplatin (3 μg/mL) to cultured SCG neurons induces apoptosis of upwards of 80% of the neurons. The addition of selected compounds of Formula I to the cellular media, concurrently with cisplatin, protects upwards of 100% of the neurons, at drug concentrations ranging from 1 to 50 μM (see Example 64).
In Vitro Protection of SCG neurons from cisplatin killing. SCG neurons were isolated from day 1 neonatal Sprague Dawley rats, plated at a cell density of 10,000 cells/well, and incubated in Biowhittaker Ultraculture containing 1% Penstrep, 1% L-glutamine, 0.7% ARAC, 3% rat serum, and NGF (50 ng/mL, Calomone Labs) at 37° C., under a 5% CO2 atmosphere. After 5 days the cells were treated with compound and cisplatin (3 μg/mL). Viability was assessed 48 hours later using MTS (Promega) staining.

The subject of another test is TrkA. Kind of test: TrkA Phosphorylation Assay in PC12 cells. The format is cell-based. The following applies: compound 10-50 μM, NGF 10 ng/mL, compared with NGF 50 ng/mL, Western blot/autoradiograph. On the procedure:
Lane PC12 624 cells not treated with NGF; Lane B—PC12 624 cells treated with NGF (50 ng/mL) for 24 hrs; Lane C—PC12 624 cells treated with NGF (50 ng/mL) for 30 minutes; Lane D—PC12 624 cells treated with NGF (10 ng/mL) and compound 23 (50 μM); Lane E—PC12 624 cells treated with NGF (10 ng/mL) and compound 23 (40 μM), Lane F—PC12 624 cells treated with NGF (10 ng/mL) and compound 23 (30 μM); Lane G—PC12 624 cells treated with NGF (10 ng/mL) and compound 23 (20 μM); Lane H—PC12 624 cells treated with a NGF (10 ng/mL) and compound 23 (10 μM); Lane I—PC12 624 cells treated with NGF (50 ng/mL) for 24 hours, and re-treated with NGF (50 ng/mL) for 30 minutes; Lane J—PC12 624 cells treated with NGF (50 ng/mL) for 30 minutes.
TrkA phosphorylation may be monitored using Trk anti-bodies and Western blot analysis. […] In PC12 expressing cells, this effect is most robust at 30 minutes when 50 ng/mL of NGF is used.
TrkA Phosphorylation Assay: Culture media was removed from cultured PC12 cells (106-107, 50% confluent) and media containing NGF (1 to 50 ng/mL), 0.1% BSA, and compound (1 to 30 μM) was added. The cells were incubated for 1 to 60 minutes, the media was removed and the cells washed twice with ice cold TBS solution. […]

Entries after “also recorded” stand apart in the source; their conditions may differ.

Here are results for 2 compounds from patent US20060234987A1, “Neuroprotective benzo 1 3 oxathiol 2 ones” (priority 2003, published 2006).

What is called IC50 is the concentration at which inhibition is half-maximal.

T1 sequence (P10586 30-1907, species assumed): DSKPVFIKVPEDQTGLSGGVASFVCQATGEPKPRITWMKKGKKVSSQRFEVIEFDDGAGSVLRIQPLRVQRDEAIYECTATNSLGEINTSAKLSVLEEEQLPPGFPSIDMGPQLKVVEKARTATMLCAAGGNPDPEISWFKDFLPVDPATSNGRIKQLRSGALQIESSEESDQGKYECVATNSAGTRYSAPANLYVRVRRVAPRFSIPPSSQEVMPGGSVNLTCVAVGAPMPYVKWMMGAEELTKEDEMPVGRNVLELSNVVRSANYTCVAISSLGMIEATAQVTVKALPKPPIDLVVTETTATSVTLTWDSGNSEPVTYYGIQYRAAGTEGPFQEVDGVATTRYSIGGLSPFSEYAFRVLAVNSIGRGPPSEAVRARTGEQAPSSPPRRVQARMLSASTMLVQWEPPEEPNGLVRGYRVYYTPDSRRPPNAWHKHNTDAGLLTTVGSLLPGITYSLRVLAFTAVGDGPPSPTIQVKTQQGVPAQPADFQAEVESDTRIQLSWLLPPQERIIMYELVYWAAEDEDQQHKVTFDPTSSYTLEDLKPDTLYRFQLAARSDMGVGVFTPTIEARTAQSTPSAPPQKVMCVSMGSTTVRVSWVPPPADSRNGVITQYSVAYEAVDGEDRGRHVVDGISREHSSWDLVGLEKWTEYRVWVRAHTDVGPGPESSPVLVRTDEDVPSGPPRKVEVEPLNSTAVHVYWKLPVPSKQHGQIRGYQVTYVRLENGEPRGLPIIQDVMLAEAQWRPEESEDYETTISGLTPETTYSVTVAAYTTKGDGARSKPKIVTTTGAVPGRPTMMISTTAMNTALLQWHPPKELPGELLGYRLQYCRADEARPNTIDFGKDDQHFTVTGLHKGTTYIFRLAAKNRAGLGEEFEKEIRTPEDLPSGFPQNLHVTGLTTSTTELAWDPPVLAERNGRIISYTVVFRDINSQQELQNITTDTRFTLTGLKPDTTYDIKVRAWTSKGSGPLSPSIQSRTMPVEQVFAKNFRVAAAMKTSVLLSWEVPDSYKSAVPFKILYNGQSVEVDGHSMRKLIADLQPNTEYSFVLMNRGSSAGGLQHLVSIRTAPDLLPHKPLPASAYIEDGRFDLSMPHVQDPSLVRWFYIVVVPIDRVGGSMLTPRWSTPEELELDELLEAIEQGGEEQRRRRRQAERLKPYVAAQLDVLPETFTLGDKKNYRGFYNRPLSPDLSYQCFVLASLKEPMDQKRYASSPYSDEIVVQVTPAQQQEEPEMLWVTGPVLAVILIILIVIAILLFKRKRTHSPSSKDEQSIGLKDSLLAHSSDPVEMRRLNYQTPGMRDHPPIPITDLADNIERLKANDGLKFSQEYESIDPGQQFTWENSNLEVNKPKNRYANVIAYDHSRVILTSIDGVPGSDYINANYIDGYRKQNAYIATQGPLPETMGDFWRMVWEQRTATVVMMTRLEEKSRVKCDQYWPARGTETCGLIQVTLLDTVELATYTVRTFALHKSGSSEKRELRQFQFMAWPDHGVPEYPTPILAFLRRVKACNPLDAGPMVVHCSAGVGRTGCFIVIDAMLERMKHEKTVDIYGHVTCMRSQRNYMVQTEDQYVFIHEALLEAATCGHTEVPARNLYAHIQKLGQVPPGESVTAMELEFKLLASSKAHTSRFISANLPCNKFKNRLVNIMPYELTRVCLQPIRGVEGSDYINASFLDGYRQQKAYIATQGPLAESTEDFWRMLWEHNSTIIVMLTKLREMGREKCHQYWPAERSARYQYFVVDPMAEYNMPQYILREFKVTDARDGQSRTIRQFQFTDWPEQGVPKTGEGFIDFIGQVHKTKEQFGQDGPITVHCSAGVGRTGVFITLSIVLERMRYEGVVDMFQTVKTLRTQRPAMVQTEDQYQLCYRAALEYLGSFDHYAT

On to `O=c1oc2c(Sc3ccc4ccccc4c3)cc(O)c(Sc3ccc4ccccc4c3)c2s1` [Compound 30, 4,7-Bis-((2-naphthyl)sulfanyl)-5-hydroxybenzo[1,3]oxathiol-2-one], for which the “LAR IC50” value at LAR is given as “no inh”. Further, the IC50 in the test on SCG neurons [1] was above 30 µM. The “PP1 IC50” value with PP1 is on record as “no inh”.
As for `O=c1oc2c(Sc3ccc4ccccc4c3)cc(O)cc2s1` [Compound 23, 5-Hydroxy-7-((2-naphthy)sulfanyl)benzo[1,3]oxathiol-2-one], the neurite outgrowth entry in the test on SCG ex-plant is “Numerous ordered neurites are present; also recorded: visibly comparable to that observed under ‘optimal’ NGF concentrations”. Besides, the IC50 against LAR was above 100 µM; in the test with SCG neurons [1] it was 25 µM; with SCG neurons [2], 15 µM. Further, the “PP1 IC50” value with PP1 is “no inh”. Besides, the TrkA phosphorylation result with TrkA is given as “maintains the level of TrkA phosphorylation even after 24 hours; also recorded: Comparable levels of TrkA phosphorylation”.
